Source: patent publication US20240360151A1 (SANOFI, priority 2023, published 2024)
Structures can show the parent of a compound that is named as a salt.

Legend:
NLRP3 inflammasome = target: T1, NLRP3 inflammasome (Homo sapiens, UniProt Q96P20); test: IL-1β secretion assay (NLRP3 IC50) in LPS-primed, nigericin-activated THP-1 cells, HTRF; format: cell-based; conditions: monocytic THP-1 cells; LPS 10 ng/mL 3 h priming, then compound + nigericin 10 μM 2 h; relative IC50, 10 concentrations, geometric mean
T1 construct: endogenous in cells; host or cells: THP-1 monocytic cells
Summary of the method: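 THP-1 cells primed with LPS 10 ng/mL for 3 h at 37° C., then compound (10-point 1:3 dilution, 0.1% DMSO) added with 10 μM nigericin for 2 h. Supernatant IL-1β measured by HTRF; relative IC50 from a 4-parameter logistic fit, reported as geometric mean.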

[1] = tested on: NF-kB pathway (TNF-α secretion by THP-1 cells); test: TNF-α secretion assay in LPS-stimulated THP-1 cells, Lumit immunoassay; format: cell-based, human; conditions: Homo sapiens, THP-1, 3 h, monocytic THP-1 cells, LPS 10 ng/mL, relative IC50, 10 concentrations, geometric mean
Experimental: Monocytic THP-1 cells were maintained in RPMI 1640 media (Gibco 21875)+10% FBS, (Gibco 10500)+1% penicillin/streptomycin (Gibco 15140-122). Cells were then plated at 40,000 cells per well in 384-well cell culture plates (Corning 3542) and maintained with RPMI1640 (Gibco 11835)+5% FBS, (Gibco 10500). Experimental compounds were prepared and added as described above. TNF-α secretion was triggered by the addition of 10 ng/mL LPS (invivoGen, tlrl-3pelps) and cells were incubated for 3 hours. TNF-α levels were monitored directly in the cells plate using an Lumit assay (Lumit TNFa-Human Immunoassay—Promega W6051) according to manufacturers' instructions.
Data were expressed as percentage of inhibition (I %) as compared to a maximum signal control containing no small molecule (I %=0%) according to the formula: 1%=(1−((Sample−Min))/((Max−Min)))×100, where: • Sample: Signal obtained in the presence of each compound tested, • Max: Maximum signal in the absence of compound added, • Min: Minimum or background signal obtained in the absence of activation signal.
Relative IC50 (IC50 rel) were obtained from a dose response curve with 10 concentrations. Final IC50 rels are expressed as the geometric mean.
Relative IC50 values were estimated with Biost@t-SPEED v2.4 internal software based on SAS system using the 4-parameter logistic model according to Ratkovsky and Reedy (D. A. Ratkovsky, T. J. Reedy, Choosing near-linear parameters in the four parameters logistic model radioligands and related assays. Biometrics, 42 (1986), 575-582): Y=A+C/((1+exp(−B*(log(X)−M)))), where: • A: Lower asymptote (BOTTOM), • A+C: Upper asymptote (TOP), • M: the logarithm of the concentration estimated at the inflexion point (the logarithm of the relative IC50), • B: Slope at the inflexion point of the curve.

T1 sequence (Q96P20 whole entry): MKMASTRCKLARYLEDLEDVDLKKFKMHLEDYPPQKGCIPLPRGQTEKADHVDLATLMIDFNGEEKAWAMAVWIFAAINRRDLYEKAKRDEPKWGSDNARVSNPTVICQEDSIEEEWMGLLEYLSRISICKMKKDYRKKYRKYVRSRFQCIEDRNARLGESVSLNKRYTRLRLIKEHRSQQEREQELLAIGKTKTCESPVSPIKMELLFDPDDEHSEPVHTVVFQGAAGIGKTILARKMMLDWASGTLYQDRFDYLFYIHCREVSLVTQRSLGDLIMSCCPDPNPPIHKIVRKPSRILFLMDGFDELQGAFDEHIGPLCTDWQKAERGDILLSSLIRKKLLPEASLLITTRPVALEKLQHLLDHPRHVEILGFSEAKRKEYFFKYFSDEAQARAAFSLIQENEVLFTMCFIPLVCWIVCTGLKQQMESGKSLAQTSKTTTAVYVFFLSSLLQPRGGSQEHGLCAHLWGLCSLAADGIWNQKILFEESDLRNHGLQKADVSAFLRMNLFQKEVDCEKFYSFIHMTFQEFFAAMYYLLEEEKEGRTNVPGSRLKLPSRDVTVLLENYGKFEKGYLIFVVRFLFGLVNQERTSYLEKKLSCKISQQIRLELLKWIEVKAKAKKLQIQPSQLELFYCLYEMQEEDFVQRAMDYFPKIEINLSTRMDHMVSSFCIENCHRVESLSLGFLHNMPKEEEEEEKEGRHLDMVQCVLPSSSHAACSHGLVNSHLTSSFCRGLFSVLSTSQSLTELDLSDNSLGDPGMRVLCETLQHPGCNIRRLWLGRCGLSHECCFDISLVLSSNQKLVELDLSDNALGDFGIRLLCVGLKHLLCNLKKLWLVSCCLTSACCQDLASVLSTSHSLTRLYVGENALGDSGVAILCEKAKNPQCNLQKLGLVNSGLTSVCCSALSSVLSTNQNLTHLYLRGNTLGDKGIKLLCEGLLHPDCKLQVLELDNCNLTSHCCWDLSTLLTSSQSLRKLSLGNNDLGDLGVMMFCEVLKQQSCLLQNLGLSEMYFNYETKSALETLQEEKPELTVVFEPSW

SMILES | IC50 (NLRP3 inflammasome) | IC50 [1]
Cc1cc(C(F)(F)F)cc(O)c1-c1ccc(N2CCO[C@H]3CCNC[C@H]32)nn1 (racemic) [Example 197, 2-[6-[rac-(4aR,8aS)-2,3,4a,5,6,7,8,8a-octahydropyrido[4,3-b][1,4]oxazin-4-yl]pyridazin-3-yl]-3-methyl-5-(trifluoromethyl)phenol] | 9 nM | > 10000 nM
CCN1CC[C@@H]2OCCN(c3ccc(-c4c(C)cc(C)cc4O)nn3)[C@@H]2C1 (racemic) [Example 209, 2-[6-[rac-(4aR,8aS)-6-ethyl-3,4a,5,7,8,8a-hexahydro-2H-pyrido[4,3-b][1,4]oxazin-4-yl]pyridazin-3-yl]-3,5-dimethyl-phenol] | 2 nM | > 10000 nM
CCN1CC[C@@H]2OCCN(c3ccc(-c4c(C)cc(C(F)(F)F)cc4O)nn3)[C@@H]2C1 (racemic) [Example 210, 2-[6-[rac-(4aR,8aS)-6-ethyl-3,4a,5,7,8,8a-hexahydro-2H-pyrido[4,3-b][1,4]oxazin-4-yl]pyridazin-3-yl]-3-methyl-5-(trifluoromethyl)phenol] | 1 nM | > 10000 nM
CC(=O)N1CC[C@@H]2OCCN(c3ccc(-c4c(C)cc(C)cc4O)nn3)[C@@H]2C1 (racemic) [Example 213, 1-[rac-(4aR,8aS)-4-[6-(2-hydroxy-4,6-dimethyl-phenyl)pyridazin-3-yl]-3,4a,5,7,8,8a-hexahydro-2H-pyrido[4,3-b][1,4]oxazin-6-yl]ethanone] | 115 nM | > 10000 nM
CC(=O)N1CC[C@H]2OCCN(c3ccc(-c4c(C)cc(C(F)(F)F)cc4O)nn3)[C@H]2C1 (racemic) [Example 214, 1-[rac-(4aS,8aR)-4-[6-[2-hydroxy-6-methyl-4-(trifluoromethyl)phenyl]pyridazin-3-yl]-3,4a,5,7,8,8a-hexahydro-2H-pyrido[4,3-b][1,4]oxazin-6-yl]ethanone] | 36 nM | > 10000 nM
Cc1cc(Cl)cc(O)c1-c1ccc(N2CCO[C@H]3CCNC[C@H]32)nn1 (racemic) [Example 221, 2-[6-[rac-(4aR,8aS)-2,3,4a,5,6,7,8,8a-octahydropyrido[4,3-b][1,4]oxazin-4-yl]pyridazin-3-yl]-5-chloro-3-methyl-phenol] | 18 nM | > 10000 nM
CC(=O)N1CC[C@@H]2OCCN(c3ccc(-c4c(C)cc(Cl)cc4O)nn3)[C@@H]2C1 (racemic) [Example 222, 1-[rac-(4aR,8aS)-4-[6-(4-chloro-2-hydroxy-6-methyl-phenyl)pyridazin-3-yl]-3,4a,5,7,8,8a-hexahydro-2H-pyrido[4,3-b][1,4]oxazin-6-yl]ethanone] | 42 nM | > 10000 nM
CCN1CC[C@@H]2OCCN(c3ccc(-c4c(C)cc(Cl)cc4O)nn3)[C@@H]2C1 (racemic) [Example 223, 5-chloro-3-methyl-2-[6-[rac-(4aR,8aS)-6-ethyl-3,4a,5,7,8,8a-hexahydro-2H-pyrido[4,3-b][1,4]oxazin-4-yl]pyridazin-3-yl]phenol] | 1 nM | > 10000 nM
Cc1cc(Cl)cc(O)c1-c1ccc(N2CCO[C@H]3CCN(C)C[C@H]32)nn1 (racemic) [Example 224, 5-chloro-3-methyl-2-[6-[rac-(4aR,8aS)-6-methyl-3,4a,5,7,8,8a-hexahydro-2H-pyrido[4,3-b][1,4]oxazin-4-yl]pyridazin-3-yl]phenol] | 1 nM | > 10000 nM
Cc1cc(C)c(-c2ccc(N3CCO[C@H]4CCN(C)C[C@H]43)nn2)c(O)c1 (racemic) [Example 225, 2-[6-[rac-(4aR,8aS)-6-methyl-3,4a,5,7,8,8a-hexahydro-2H-pyrido[4,3-b][1,4]oxazin-4-yl]pyridazin-3-yl]-3,5-dimethyl-phenol] | 3 nM | > 10000 nM
Cc1cc(C(F)(F)F)cc(O)c1-c1ccc(N2CCO[C@H]3CCN(C)C[C@H]32)nn1 (racemic) [Example 226, 2-[6-[rac-(4aR,8aS)-6-methyl-3,4a,5,7,8,8a-hexahydro-2H-pyrido[4,3-b][1,4]oxazin-4-yl]pyridazin-3-yl]-3-methyl-5-(trifluoromethyl)phenol] | 2 nM | > 10000 nM
CC(=O)N1C[C@@H]2CCN(c3ccc(-c4c(C)cc(C(F)(F)F)cc4O)nn3)[C@@H]2C1 (racemic) [Example 228, 1-[rac-(3aS,6aS)-1-[6-[2-hydroxy-6-methyl-4-(trifluoromethyl)phenyl]pyridazin-3-yl]-2,3,3a,4,6,6a-hexahydropyrrolo[3,4-b]pyrrol-5-yl]ethanone] | 271 nM | > 10000 nM
Cc1cc(C(F)(F)F)cc(O)c1-c1ccc(N2CC[C@H]3CNC[C@H]32)nn1 (racemic) [Example 229, 2-[6-[rac-(3aS,6aS)-3,3a,4,5,6,6a-hexahydro-2H-pyrrolo[3,4-b]pyrrol-1-yl]pyridazin-3-yl]-3-methyl-5-(trifluoromethyl)phenol] | 42 nM | > 10000 nM
CCN1C[C@@H]2CCN(c3ccc(-c4c(C)cc(C(F)(F)F)cc4O)nn3)[C@@H]2C1 (racemic) [Example 243, 2-[6-[rac-(3aS,6aS)-5-ethyl-2,3,3a,4,6,6a-hexahydropyrrolo[3,4-b]pyrrol-1-yl]pyridazin-3-yl]-3-methyl-5-(trifluoromethyl)phenol] | 21 nM | > 10000 nM
Cc1cc(C(F)(F)F)cc(O)c1-c1ccc(N2CC[C@H]3CNC[C@H]3C2=O)nn1 (racemic) [Example 264, rac-(3aS,7aR)-5-[6-[2-hydroxy-6-methyl-4-(trifluoromethyl)phenyl]pyridazin-3-yl]-2,3,3a,6,7,7a-hexahydro-1H-pyrrolo[3,4-c]pyridin-4-one, hydrochloride] | 69 nM | > 10000 nM
Cc1cc(C(F)(F)F)cc(O)c1-c1ccc(N2CC[C@H]3CN(C)C[C@H]32)nn1 (racemic) [Example 265, 2-[6-[rac-(3aS,6aS)-5-methyl-2,3,3a,4,6,6a-hexahydropyrrolo[3,4-b]pyrrol-1-yl]pyridazin-3-yl]-3-methyl-5-(trifluoromethyl)phenol] | 314 nM | > 10000 nM
Cc1cc(C(F)(F)F)cc(O)c1-c1ccc(N2CC[C@H]3CNC[C@@H]3C2=O)nn1 (racemic) [Example 269, rac-(3aS,7aS)-5-[6-[2-hydroxy-6-methyl-4-(trifluoromethyl)phenyl]pyridazin-3-yl]-2,3,3a,6,7,7a-hexahydro-1H-pyrrolo[3,4-c]pyridin-4-one, hydrochloride] | 404 nM | > 10000 nM
Cc1cc(N2CC[C@@H]3CCN(C)C[C@@H]32)nnc1-c1ccc(C(F)(F)F)cc1O (racemic) [Example 340, 2-[4-methyl-6-[rac-(3aS,7aR)-6-methyl-3,3a,4,5,7,7a-hexahydro-2H-pyrrolo[2,3-c]pyridin-1-yl]pyridazin-3-yl]-5-(trifluoromethyl)phenol] | 0.4 nM | > 10000 nM
Cc1ccc(-c2nnc(N3CC[C@@H]4CCN(C)C[C@@H]43)cc2C)c(O)c1 (racemic) [Example 341, 5-methyl-2-[4-methyl-6-[rac-(3aS,7aR)-6-methyl-3,3a,4,5,7,7a-hexahydro-2H-pyrrolo[2,3-c]pyridin-1-yl]pyridazin-3-yl]phenol] | 1 nM | > 10000 nM
Cc1cc(C)c(-c2ccc(N3CC[C@@H]4CCN(C)C[C@@H]43)nn2)c(O)c1 (racemic) [Example 342, 3,5-dimethyl-2-[6-[rac-(3aS,7aR)-6-methyl-3,3a,4,5,7,7a-hexahydro-2H-pyrrolo[2,3-c]pyridin-1-yl]pyridazin-3-yl]phenol] | 2 nM | > 10000 nM
CCN1C[C@@H]2OCCN(c3ccc(-c4c(C)cc(C(F)(F)F)cc4O)nn3)[C@@H]2C1 (racemic) [Example 361, 3-methyl-2-[6-[rac-(4aR,7aS)-6-ethyl-2,3,4a,5,7,7a-hexahydropyrrolo[3,4-b][1,4]oxazin-4-yl]pyridazin-3-yl]-5-(trifluoromethyl)phenol] | 8 nM | > 10000 nM
Cc1cc(C(F)(F)F)cc(O)c1-c1ccc(N2CC[C@@H]3CCN(C)C[C@@H]32)nn1 (racemic) [Example 371, 2-[6-[rac-(3aS,7aR)-6-methyl-3,3a,4,5,7,7a-hexahydro-2H-pyrrolo[2,3-c]pyridin-1-yl]pyridazin-3-yl]-3-methyl-5-(trifluoromethyl)phenol] | 1 nM | > 10000 nM
